Experiments:
[1] = system: AMPKα, ACC1, mTOR, p70 S6 Kinase phosphorylation; assay: Western blot of AMPK/mTOR signaling in HUVEC; type: cell-based, human; conditions: 24 h
Description: Cell lysates were subjected to Western blot.
(§1) We thus determined whether compound 248 shared the same mechanism with itraconazole. The intracellular cholesterol was detected using the cholesterol-binding fluorescent dye filipin. […] It is known that AMPK activation leads to mTOR inhibition.
Western blot. […] Then cells were lysed using RIPA buffer and the protein concentration were measured and normalized. After electrophoresis and transfer onto 0.45 um nitrocellulose membranes, the membranes were bolted with 5% BSA for 1 h and then incubated overnight at 4° C. Secondary antibody was applied to each membrane for 1 hour. Bolts were imaged using Syngene PXi imaging system after adding chemiluminescent substrate. The following antibodies were used for the assay: AMPKα (1:1,000, cell signaling, #2532s), phosphor-AMPKα (1:1,000, cell signaling #2535s), ACC (1:1,000, cell signaling #3662s), phosphor-ACC (1:1,000, cell signaling, #3661s), mTOR (1:1,000, cell signaling, #2972S), phosphor-mTOR (1:1,000, cell signaling, #9234s), p70 S6 Kinase (1:1,000, senta cruz, #sc-8418), phosphor-p70 S6 Kinase (1:1,000, cell signaling, #3662s), anti-Rabbit IgG (1:10000, GE lifesciences, #NA934V).

HUVEC = assay: Filipin staining of intracellular cholesterol (NPC phenotype); type: cell-based, human; conditions: 0.1 μM, 0.2 μM for 24 h in FIG. 14 legend
Description: Intracellular cholesterol was visualized using filipin staining and fluorescent images were captured under a confocal microscope.
as §1
Filipin staining. 2000 HUVECs were plated in chamber slide with 1 ml media and allowed to settle overnight. cCells were treated with 0.1 uM drug or DMSO for 14 hours. The the cells were fixed with 4% paraformaldehyde for 15 min. After washed, cells were incubated with 500 ul 50 ug/ml filipin solution for 1 hour in the dark. Then the cells were washed twice with PBS, mounted and covered with coverslip. The images were taken using confocal microscope under 360/460 nm.

CYP3A4 [2] = target: T1, CYP3A4 (Homo sapiens, UniProt P08684); assay: CYP3A4 enzyme assay (Vivid CYP3A4 Green Screening Kit); type: in vitro ADME; conditions: % enzyme inhibition at 1 μM drug / % enzyme inhibition at 1 μM itraconazole
T1 construct: purchased ThermoFisher P2857; host or cells: baculosomes
Description: And CYP3A4 inhibition was initially determined using a cell-free fluorescence-based assay at a final concentration of 1 μM (Table 7).
CYP3A4 enzyme assay. CYP3A4 enzyme activity was tested using Vivid™ CYP3A4 Green Screening Kit (ThermoFisher, #P2857) using the manufacturer's protocol. Briefly, CYP3A4 baculosomes and drugs were incubated 10 min at 37° C. Then Vivid® Substrates were added and the fluorescence (ex/em:485/520) were read every 1 min for 60 minute.

CYP3A4 [3] = target: T1, CYP3A4; assay: as above; type: in vitro ADME; conditions: dose response, FIG. 12; read-out: CYP3A4 inhibition IC50
HUVEC tube formation = HUVEC tube formation assay on Matrigel; type: cell-based; conditions: Homo sapiens, 20 h, read-out: inhibition of HUVEC tube formation (total tube length)
Gli1 transcript = assay: Quantification of Gli1 transcript by TaqMan analysis in MB cells (Hh pathway); type: cell-based, mouse
How it was run: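 After drug exposure, total RNA extracted from MB cells, reverse transcribed, and Gli1 quantified by TaqMan qPCR with mouse Gli-1 and actin primer/probe sets. Values expressed as fold induction relative to control by the 2^−ΔΔCt method, normalized to actin.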

VEGFR2 = VEGFR2 glycosylation in HUVEC (Western blot scoring); type: cell-based, human; conditions: VEGFR2 hypoglycosylation score in HUVEC, 2 μM, 24 h; note: key: ++: robust; +: intermediate; −: absent

T1 sequence (P08684 whole entry): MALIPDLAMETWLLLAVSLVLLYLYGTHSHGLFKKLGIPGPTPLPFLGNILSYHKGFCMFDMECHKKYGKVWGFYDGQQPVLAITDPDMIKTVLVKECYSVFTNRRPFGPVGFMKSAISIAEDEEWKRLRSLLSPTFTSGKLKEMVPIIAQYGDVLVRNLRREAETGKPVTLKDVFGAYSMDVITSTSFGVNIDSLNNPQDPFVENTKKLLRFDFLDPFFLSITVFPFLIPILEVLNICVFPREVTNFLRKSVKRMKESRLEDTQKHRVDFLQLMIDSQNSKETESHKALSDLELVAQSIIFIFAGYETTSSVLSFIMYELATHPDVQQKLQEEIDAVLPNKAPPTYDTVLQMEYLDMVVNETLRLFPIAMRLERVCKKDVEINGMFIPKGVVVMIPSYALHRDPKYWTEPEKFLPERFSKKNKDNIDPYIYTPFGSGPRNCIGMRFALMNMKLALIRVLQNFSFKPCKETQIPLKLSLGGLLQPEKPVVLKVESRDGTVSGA

CYP3A4 Inhibition (compared to intracozanole at 1 μm) (CYP3A4 [2]) | IC50 (CYP3A4 [3]) [µM] | Structure (SMILES) | phosphorylation of AMPKα at Thr172 ([1]; 0.01-1 μM, dose-dependent) | phosphorylation of acetyl CoA carboxylase 1 (ACC1) [1] | phosphorylation of mTOR [1] | phosphorylation of p70 S6 Kinase (S6K) [1] | NPC phenotype (cholesterol accumulation in late endosome/lysosome) (HUVEC) | inhibition at 5 µM (HUVEC tube formation) [%] | Gli I Inhibition (IC90 Prolif. dose) (Gli1 transcript; Gli1 transcript fold induction score, MB cells exposed 24 h at the IC90 for MB proliferation) | inhibition of Gli1 transcript levels (Gli1 transcript; established MB cultures, FIG. 9B) | Glycosylation (2 μM dose) (VEGFR2)
0.02 | > 20 | CCC(C)n1ncn(-c2ccc(N3CCN(c4ccc(OC[C@@H]5CO[C@@](Cn6cnnn6)(c6ccc(Cl)cc6Cl)O5)cc4)CC3)cc2)c1=O (stereo partly drawn) [Compound 248, 4-(4=(4-(4-(((2S,4R)-2-((1H-tetrazol-1-yl)methyl)-2-(2,4-dichlorophenyl)-1,3-dioxolan-4-yl)methoxy)phenyl)piperazin-1-yl)phenyl)-1-sec-butyl-1H-1,2,4-triazol-5(4H)-one] | increased | increased | decrease | decrease | induced NPC phenotype | – | – | – | –
– | – | CCC(C)n1ncn(-c2ccc(N3CCN(c4ccc(OCC5COC(Cn6cncn6)(c6ccc(Cl)cc6Cl)O5)cc4)CC3)cc2)c1=O (stereo not drawn) [Itraconazole, reference compound] | – | – | – | – | induce NPC phenotype | 45 | ++ (≤0.15) | Dose-dependent inhibition | ++

From patent publication US11028078B2 (The Johns Hopkins University, priority 2011, dated 2021)
